Assay results as given in patent US10428028B2, “HDAC inhibitors” (BIOMARIN PHARMACEUTICAL INC., priority 2013, dated 2019).

Experiments:
[1] = tested on: Frataxin (FXN) mRNA; test: Effect of HDAC inhibitors on frataxin (FXN) mRNA expression; assay type: cell-based, human (Friedreich's ataxia patient primary lymphocytes); conditions: Friedreich's ataxia patient primary lymphocytes, 48 hours
Procedure: Blood is collected from Friedreich's ataxia patient donors into tubes containing the anti-coagulant EDTA. Primary lymphocytes are isolated using Lymphocyte Separation Medium (MP Biomedicals, Solon, Ohio) following the manufacturer's instructions and including a few modifications made by Repligen. After a final wash in Phosphate Buffered Saline (PBS), the cells are distributed into a 6-well cell culture plate in cell growth medium. The test HDAC inhibitor compound is added to cells in a dose escalating manner (usually concentrations range from 1 to 10 μM) and 0.1% DMSO is added to one well of cells as a no treatment control. […] The RNA yield and concentration is determined using a Nanodrop spectrophotometer (Thermo Fisher Scientific, Waltham, Mass.) and depending on the RNA concentration, one of two protocols is used to measure frataxin (FXN) transcript levels. […] In both methods each RNA sample is analyzed in triplicate (preferably) or duplicate (minimally) using a one-step qRT-PCR master mix that contains all the components necessary for cDNA synthesis and PCR amplification in a single, continuous reaction. […] The amount of FXN (or GAPDH) in the sample is determined as the relative quantity to the calibrator where the calibrator sample is assigned an arbitrary quantity of 1. […] The relative quantity of FXN is normalized to cell number and RNA input. […]

[2] = Brain penetration studies; assay type: in vivo; conditions: C57/BL6/J, mouse; mice, s.c. 5 or 50 mg/kg or i.v. 5 mg/kg; Cmax(brain)/Cmax(plasma); read-out: BPR (brain/plasma ratio)
Procedure: Test compounds were prepared at either 0.5 mg/ml or 5 mg/ml in 30% hydroxypropyl-β-cyclodextrin, 100 mM sodium acetate pH 5.5, 5% DMSO. C57/BL6/J mice were dosed s.c. at 5 mg/kg or 50 mg/kg, or i.v. at 5 mg/kg. Animals were euthanized at pre-dose, 5, 15, 30 min, 1, 2 and 4 hours post-dose and plasma and brain obtained. Three animals per dose per time points were used. The levels of compound in the plasma and brain were determined by standard LC/MS/MS methods. Brain/plasma ratio (BPR) was calculated as the ratio of the Cmax(brain)/Cmax(plasma). The results are shown in Table 5, where IA corresponds to a BPR less than 0.1, D is between 0.1 and 0.2, C is 0.2 to 0.5, B comprises 0.5 to 1 and A is greater than 1.

[3] = Acid stability determination; assay type: physicochemical; conditions: 0.01 M HCl, 50° C., 100 μM
Procedure: A 100 μM solution of test compound was prepared by dilution of a 10 mM DMSO stock solution in a 0.01 M solution of HCl in deionized water. Immediately after mixing, an aliquot (100 μL) was sampled and analyzed by HPLC/UV. The area under the compound peak was determined and used as the time zero reference point. The remainder of the acid sample was incubated at 50° C. and samples were taken after 2, 4, and 24 hours of incubation. On a few occasions, samples were taken at 30 rather than 24 hours. These were analyzed by the same HPLC/UV method and the area of the peak corresponding to the test compound was measured. Percent remaining at a given time point was then calculated as the ratio of the area under the peak after incubation to that at time zero times 100. In those cases where a 30 hour time point was recorded, the percent remaining at 24 hours was obtained by interpolation of the percent remaining versus time curve assuming a unimolecular process, i.e. a monoexponential decay. Percent remaining after 24 hours incubation are presented in Table 5 below, where A corresponds to more than 60%, B is between 40 and 60%, C covers 20 to 40% and D means less than 20%.

SMILES | Kp [2] | Acid Stability % Left 24 hr [3] | Fxn >2X (concentration required for a 2-fold increase in FXN mRNA) [1]
Nc1ccccc1NC(=O)c1ccc2c(cnn2Cc2ccc(F)c(F)c2)c1 [Compound A9] | > 1 | A (A corresponds to more than 60%) | A (A if less than 5 μM)
Nc1ccccc1NC(=O)c1ccc2c(cnn2Cc2ccccc2)c1 [Compound A2] | > 1 | B (B is between 40 and 60%) | –
Nc1cc(F)ccc1NC(=O)c1ccc2c(cnn2Cc2cccnc2)c1 [Compound A6] | – | A (A corresponds to more than 60%) | –
Cc1ccc(Cn2ncc3cc(C(=O)Nc4ccccc4N)ccc32)c(C)n1 [Compound A5] | 0.2 to 0.5 | – | –
Cc1ccc(Cn2ncc3cc(C(=O)Nc4ccc(F)cc4N)ccc32)c(C)n1 [Compound A8] | – | A (A corresponds to more than 60%) | –
Cn1cc(Cn2ncc3cc(C(=O)Nc4ccccc4N)ccc32)cn1 [Compound A3] | 0.2 to 0.5 | – | –
Nc1cc(F)ccc1NC(=O)c1ccc2c(cnn2CC2CC2)c1 [Compound A12] | 0.5 to 1 | B (B is between 40 and 60%) | C (C if greater than 10 μM)

More lines, main results first:

Kp [2] | Acid Stability % Left 24 hr [3] | SMILES | Fxn >2X (concentration required for a 2-fold increase in FXN mRNA) [1]
0.2 to 0.5 | – | Nc1ccccc1NC(=O)c1ccc2c(cnn2Cc2cncc(F)c2)c1 [Compound A4, N-(2-aminophenyl)-1-((5-fluoropyridin-3-yl)methyl)-1H-indazole-5-carboxamide] | –
0.2 to 0.5 | – | Nc1ccccc1NC(=O)c1ccc2nn(Cc3cncc(F)c3)cc2c1 [Compound A14, N-(2-aminophenyl)-2-((5-fluoropyridin-3-yl)methyl)-2H-indazole-5-carboxamide] | –
0.2 to 0.5 | – | Nc1ccccc1NC(=O)c1ccc2c(cnn2Cc2cccnc2)c1 [Compound A1] | –
< 0.1 | – | Cc1ccc(Cn2cc3cc(C(=O)Nc4ccccc4N)ccc3n2)c(C)n1 [Compound A15] | –
0.2 to 0.5 | B (B is between 40 and 60%) | Nc1cc(F)ccc1NC(=O)c1ccc2c(cnn2Cc2cncc(F)c2)c1 [Compound A7] | –
< 0.1 | – | Nc1ccccc1NC(=O)c1ccc2nn(Cc3cccnc3)cc2c1 [Compound A13] | –
